Laboratory results as given in paper PMC12647017, “Discovery and optimization of a synthetic small protein domain targeting antibodies” (Frontiers in Bioengineering and Biotechnology, 2025).

Test system: hIgG
Experiment: ELISA of soluble fractions of native and mutated WW domains against hIgG
Type: binding
Conditions: human IgG, soluble fraction, E6 detected with anti-HA-HRP, E6_M2 and Rosetta extract with anti-His-HRP, ABTS
Experimental: The soluble fraction of 100 mL cultures (100 μL) was used for ELISA against hIgG, as described in ([Dias et al., 2025]). Briefly, the target hIgG was immobilized (1 μg/well) in 0.1 M Sodium Bicarbonate pH 8.6 in Immuno Maxisorp ELISA plates (Thermo Fisher), overnight at 4 °C. In the next day, the unbound hIgG was removed, and the wells washed with PBS1x. To the wells was added the blocking solution – 5% (v/v) Soya Milk in PBS 1x and incubated for 1 h at room temperature. The wells were washed and incubated with 100 µL of soluble fraction (∼0.065 mg/mL total protein) at room temperature for 2 h.
The unbound WW domains were removed, and the wells were washed using 4 times PBS1x-0.05% Tween 20 and 1 time with PBS1x. For detection was used 1:1,000 anti-His-HRP conjugated antibody (MA1-21315-HRP, Invitrogen) in 1% (v/v) Soya Milk in PBS1x and incubated for 1 h at RT, after that the wells were washed with 5x PBS1x. The detection occurred with ABTS (2,2′-azino-bis(3-ethylbenzothiazoline-6-sulfonic acid) ready solution (11684302001, Roche), which was incubated in the dark for 1 h at 37 °C. Finally, the results were analysed in a microplate reader (Tecan) with appropriate filter at Abs405nm.
Figure S6 – Production and signal characterization of mutated versions. A – Tris-Tricine gels after cell lysis of the WW prototype sequence (WWp, band at ~8KDa), mutated WWp5_4 scaffold (WWp5_4_M2, band at ~8 kDa) and mutated E6 (E6_M2, band at ~ 12kDa). Samples were normalized 90µg total protein/lane. M - Precision Plus Protein™ Dual Xtra Prestained, Biorad; SF – soluble fraction; ISF – insoluble fraction. B1, B2, and B3 indicate production batchs in 1L culture, except for WWp B1 – 100 mL, WWp_5_4 B2 – 900 mL. Stained with Simplyblue. […] The detection of the clones was made with anti-His conjugated antibody with HRP and detected with ABTS as substrate.
Figure S7 – Comparison between ELISA signal of E6 versus E6_M2. […] The expression levels were detected by direct coating of the microplate well with the soluble fraction of the extract. […] All were detected with ABTS as substrate.

Sequence: SMGLPPGWDEYKT RRFKL GKTYYYNH HILS KTSTWTDPRMSS [Clone E6]
- binding signal relative to negative control (E. coli Rosetta extract): 1.5 times
